Results taken from paper PMC10820097, “Benzofuran Derivatives from Cortex Mori Radicis and Their Cholinesterase-Inhibitory Activity” (Molecules, 2024).
Several values for one entry are separate records, joined by “and”; a condition that tells them apart may be missing. Equal entries are not always repeated. Where two headings read alike, the source gives them in different places.

What was measured:
AChE (EC 3.1.1.7) = target: T1, AChE (EC 3.1.1.7) (Electrophorus electricus, UniProt O42275); assay: biochemical; assay type: biochemical; details: for IC50: sample concentration that led to 50% enzyme activity loss, mean ± SD, triplicate
T1 construct: AChE (EC 3.1.1.7, from electric eel); purchased Aladdin Industrial Co., Ltd. (Shanghai, China); host or cells: electric eel (natural source)
T1 sequence (O42275 24-633): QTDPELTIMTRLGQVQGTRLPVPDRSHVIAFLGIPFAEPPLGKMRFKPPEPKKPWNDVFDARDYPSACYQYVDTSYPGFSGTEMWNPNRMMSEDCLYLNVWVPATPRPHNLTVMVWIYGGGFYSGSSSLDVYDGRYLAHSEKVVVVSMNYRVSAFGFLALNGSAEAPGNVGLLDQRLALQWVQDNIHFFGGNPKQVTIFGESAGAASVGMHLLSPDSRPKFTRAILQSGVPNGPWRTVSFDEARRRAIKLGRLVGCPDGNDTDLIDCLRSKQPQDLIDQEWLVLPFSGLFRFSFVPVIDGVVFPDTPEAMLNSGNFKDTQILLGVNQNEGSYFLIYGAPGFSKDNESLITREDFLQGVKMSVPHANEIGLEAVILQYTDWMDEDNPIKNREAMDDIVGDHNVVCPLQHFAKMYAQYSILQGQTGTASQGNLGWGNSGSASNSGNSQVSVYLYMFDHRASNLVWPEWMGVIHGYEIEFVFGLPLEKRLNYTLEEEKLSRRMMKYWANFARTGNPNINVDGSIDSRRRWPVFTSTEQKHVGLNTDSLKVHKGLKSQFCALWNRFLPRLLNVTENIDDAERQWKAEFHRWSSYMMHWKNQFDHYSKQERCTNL
Protocol: (§1) AChE (EC 3.1.1.7, from electric eel), BChE (EC 3.1.1.8, from equine serum), acetylthiocholine iodide (ATCI), butyrylthiocholine iodide (BTCI), and 5,5′-dithiobis (2-nitrobenzoic acid) (DTNB) were purchased from Aladdin Industrial Co., Ltd. (Shanghai, China).
(§2) Briefly, AChE and BChE solutions (0.2 units/mL) and ATCI, BTCI, and DTNB solutions (10 mM) were prepared in PBS solution (0.1 M, pH 8.0). The test compound stock solutions (10 mM) were made using methanol, and five different concentrations of each compound were prepared by doubling the dilution with methanol to determine the half-maximal inhibitory concentration (IC50). Firstly, 160 μL of PBS, 2 μL of the test samples, 20 μL of AChE or BChE, and 10 μL of DTNB were mixed and preincubated at 37 °C for 10 min. Thereafter, 10 μL of ATCI or BTCI was added to initiate the reaction, which was incubated at 37 °C for 25 min. The absorbance was measured at 412 nm during incubation. The inhibition rate was calculated using the following formula: IR% = [(Ac − As)]/(Ac − Ab] × 100%, where Ab denotes the absorbance of the blank control (20 μL of water replacing the enzyme solution), Ac represents the absorbance of the control (2 μL of methanol replacing the sample solutions), and As denotes the absorbance of the sample. All of the tests for each sample were performed in triplicate. The IC50 value of each compound was obtained by plotting the inhibition rate against the logarithm of its concentration, and the data were expressed as the mean ± SD.

BChE (EC 3.1.1.8) [1] = target: T2, BChE (EC 3.1.1.8) (Equus caballus, UniProt P81908); assay: Kinetic study of BChE inhibition (Lineweaver–Burk and secondary plots); assay type: biochemical; details: for BChE Inhibition Type: Lineweaver–Burk plots; for BChE αKi: from secondary plot of 1/Vmax vs [I], binding to ES complex; for BChE α (thermodynamic cooperativity factor): αKi/Ki
T2 construct: BChE (EC 3.1.1.8, from equine serum); purchased Aladdin Industrial Co., Ltd. (Shanghai, China); host or cells: equine serum (natural source)
T2 sequence (P81908 whole entry): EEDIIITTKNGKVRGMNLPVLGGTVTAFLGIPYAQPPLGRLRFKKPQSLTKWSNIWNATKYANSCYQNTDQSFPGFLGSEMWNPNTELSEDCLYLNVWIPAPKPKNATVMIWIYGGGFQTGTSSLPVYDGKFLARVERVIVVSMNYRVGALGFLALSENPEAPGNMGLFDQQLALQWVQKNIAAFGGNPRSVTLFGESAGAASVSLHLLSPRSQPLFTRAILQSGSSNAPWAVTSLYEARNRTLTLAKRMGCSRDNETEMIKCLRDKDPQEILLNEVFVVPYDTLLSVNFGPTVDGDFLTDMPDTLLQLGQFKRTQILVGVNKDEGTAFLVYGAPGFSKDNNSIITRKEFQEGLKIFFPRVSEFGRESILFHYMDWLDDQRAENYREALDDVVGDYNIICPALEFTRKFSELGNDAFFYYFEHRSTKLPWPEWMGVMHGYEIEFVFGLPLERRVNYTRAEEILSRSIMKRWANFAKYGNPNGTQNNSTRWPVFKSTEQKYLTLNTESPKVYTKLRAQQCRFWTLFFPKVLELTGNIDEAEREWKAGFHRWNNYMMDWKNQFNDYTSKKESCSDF
Protocol: To determine the inhibition modes of the compounds, enzyme kinetic studies were carried out for the structurally representative inhibitors, namely, compounds 1, 8, 9, 11, and 14. […] For this type of interaction, inhibitors can bind to the free enzyme (E) and the enzyme–substrate (ES) complex, forming EI and ESI complexes, respectively. The Ki and αKi values for the inhibitors were determined from the secondary plots of the slope (Km/Vm) and the vertical intercept (1/Vm) from the Lineweaver–Burk plot as functions of the inhibitor concentration, respectively (Figure S2 in Supplementary Materials), and the thermodynamic cooperativity factor α differed among the five structurally diverse inhibitors (Table 3).
as §1
Using the same protocol as the inhibitory activity assay, kinetic studies of BChE inhibition were performed with a series of concentrations of substrate BTCI, namely, 0.1, 0.2, 0.3, 0.4, and 0.5 mM or 0.2, 0.4, 0.5, 0.6, and 0.7 mM. Three concentrations of each test compound were selected according to the IC50 value. The detection of absorbance was conducted during the enzymatic reaction at 10 min, 20 min, and 25 min. The change in absorbance per minute was referred to as the velocity of the enzyme-promoting reaction. The Lineweaver–Burk plots (double-reciprocal plots) were created by plotting the reciprocal of velocity (1/V) against the reciprocal of BTCI concentration (1/[BTCI]) for a compound at three concentrations, and the kinetic parameters, Michaelis constant (Km), and maximum velocity (Vmax) obtained therefrom were used to check the inhibition modes. The value of the inhibitor constant Ki was determined by referencing the secondary plot of the slope of the double-reciprocal lines (from the Lineweaver–Burk plot) as a function of [I], and the x intercept was equal to −Ki. Another secondary plot was fitted by 1/Vmax as a function of the inhibitor concentration [I], and the value of −αKi can be determined to be the x intercept therefrom.

BChE (EC 3.1.1.8) [2] = target: T2, BChE (EC 3.1.1.8); assay: BChE inhibitory activity assay (modified Ellman's method); assay type: biochemical; details: for IC50: sample concentration that led to 50% enzyme activity loss, mean ± SD, triplicate; for BChE inhibitory effect, in words: up to 100 μM where stated
Protocol: as §1, §2

[3] = cis-trans photoisomerization under UV exposure (HPLC detection); assay type: physicochemical; details: UV exposure at 254 and 365 nm
Excerpt: The NMR data of 6 (Table 1 and Table 2) were identical to those of nigranol A previously isolated from Morus nigra Linn. The Δ7,8 double bond of nigranol A was formerly determined to be a Z-configuration according to the relatively large coupling constant (12.8 Hz) between H-8 and H-9, which is not applicable and convincing in view of the freely rotating single bond between C-8 and C-9. […] Fortunately, the crystals of compounds 1 and 6 were obtained, and single-crystal X-ray diffraction (XRD) analyses were conducted to determine the configuration of the Δ7,8 double bond. As a result, the isobutene moiety (C-9) and the carbonyl group (C-13), the larger substituent groups for C-8 and C-7, respectively, existed in cis- and trans-conformations in compounds 1 and 6, respectively (Figure 3). Therefore, compound 1 was determined to be (Z)-6-hydroxy-3-(3-methylbut-2-en-1-ylidene)benzofuran-2(3H)-one and named albaphenol A, while nigranol A (6) was revised as (E)-6-hydroxy-3-(3-methylbut-2-en-1-ylidene)benzofuran-2(3H)-one. […] Due to the cis–trans tautomerism also taking place slowly under natural light, the samples were stored in a 4 °C refrigerator under dark conditions, and the crystallizations of the two compounds were induced in nearly saturated methanol solution under the same conditions.

BChE [4] = system: BChE; parameters: method as in PMID 29786669; details: read-out: BChE IC50 in previous research; cited from earlier work
BChE [5] = system: BChE; parameters: method as in PMID 31459768; details: cited from earlier work
[6] = from secondary plot of slope of Lineweaver–Burk lines vs [I], binding to free enzyme, read-out: BChE Ki

CC(C)=C/C=C1\C(=O)Oc2cc(O)ccc21 [Compound 1, (Z)-6-hydroxy-3-(3-methylbut-2-en-1-ylidene)benzofuran-2(3H)-one]
IC50 (AChE (EC 3.1.1.7)): > 100 µM | BChE Inhibition Type (BChE (EC 3.1.1.8) [1]): Mixed uncompetitive | BChE αKi (BChE (EC 3.1.1.8) [1]): 43.0 µM | Ki (BChE (EC 3.1.1.8) [1]; [6]): 93.4 µM | BChE α (thermodynamic cooperativity factor) (BChE (EC 3.1.1.8) [1]): 0.46 | IC50 (BChE (EC 3.1.1.8) [2]; read-out: IC50 BChE): 45.5 ± 5.9 µM | time to almost reach equilibrium of cis-trans photoisomerization (1 and 6, ratio approximately 1:1) [3]: ≤ 30 min

COC(=O)/C(=C/C=C(C)C)c1ccc(O)cc1O [Compound 2, albaphenol B]
IC50 (AChE (EC 3.1.1.7)): > 100 µM | IC50 (BChE (EC 3.1.1.8) [2]; read-out: IC50 BChE): > 100 µM

COC(=O)C(CC=C(C)C)c1ccc(O)cc1O (centres unmarked) [Compound 3, methyl 2-(2,4-dihydroxyphenyl)-5-methylhex-4-enoate]
IC50 (AChE (EC 3.1.1.7)): > 100 µM | IC50 (BChE (EC 3.1.1.8) [2]; read-out: IC50 BChE): > 100 µM

CCOC(=O)C(CC=C(C)C)c1ccc(O)cc1O (centres unmarked) [Compound 4, ethyl 2-(2,4-dihydroxyphenyl)-5-methylhex-4-enoate]
IC50 (AChE (EC 3.1.1.7)): > 100 µM | IC50 (BChE (EC 3.1.1.8) [2]; read-out: IC50 BChE): 61 ± 3.4 µM

CC(C)(O)CCC(=O)c1ccc(O)cc1O [Compound 5, 1-(2,4-dihydroxyphenyl)-4-hydroxy-4-methylpentan-1-one]
IC50 (AChE (EC 3.1.1.7)): > 100 µM | IC50 (BChE (EC 3.1.1.8) [2]; read-out: IC50 BChE): > 100 µM

CC(C)=C/C=C1/C(=O)Oc2cc(O)ccc21 [Compound 6, (E)-6-hydroxy-3-(3-methylbut-2-en-1-ylidene)benzofuran-2(3H)-one]
IC50 (AChE (EC 3.1.1.7)): > 100 µM | AChE inhibitory effect, in words (AChE (EC 3.1.1.7); up to 100 μM where stated): no obvious inhibition | IC50 (BChE (EC 3.1.1.8) [2]; read-out: IC50 BChE): 94.8 µM and > 100 µM | BChE inhibitory effect, in words (BChE (EC 3.1.1.8) [2]): no obvious inhibition | time to almost reach equilibrium of cis-trans photoisomerization (1 and 6, ratio approximately 1:1) [3]: ≤ 30 min

COc1cc(O)cc(-c2cc3cc(O)c(OC)cc3o2)c1 [Compound 7, moracin B]
IC50 (AChE (EC 3.1.1.7)): > 100 µM | IC50 (BChE (EC 3.1.1.8) [2]; read-out: IC50 BChE): > 100 µM | BChE inhibitory effect, in words (BChE (EC 3.1.1.8) [2]): did not inhibit

CC(C)=CCc1c(O)cc(-c2cc3ccc(O)cc3o2)cc1O [Compound 8, moracin C]
IC50 (AChE (EC 3.1.1.7)): > 100 µM | BChE Inhibition Type (BChE (EC 3.1.1.8) [1]): Mixed competitive | BChE αKi (BChE (EC 3.1.1.8) [1]): 71.1 µM | Ki (BChE (EC 3.1.1.8) [1]; [6]): 12.8 µM | BChE α (thermodynamic cooperativity factor) (BChE (EC 3.1.1.8) [1]): 5.55 | IC50 (BChE (EC 3.1.1.8) [2]; read-out: IC50 BChE): 27.9 ± 3.5 µM

CC1(C)C=Cc2c(O)cc(-c3cc4ccc(O)cc4o3)cc2O1 [Compound 9, moracin D]
IC50 (AChE (EC 3.1.1.7)): 81.2 ± 3.9 µM | Ki (BChE (EC 3.1.1.8) [1]): 5.7 µM | BChE Inhibition Type (BChE (EC 3.1.1.8) [1]): Mixed competitive | BChE αKi (BChE (EC 3.1.1.8) [1]): 25.2 µM | BChE α (thermodynamic cooperativity factor) (BChE (EC 3.1.1.8) [1]): 4.42 | IC50 (BChE (EC 3.1.1.8) [2]; IC50 BChE): 9.5 ± 3.2 µM

Oc1cc(O)cc(-c2cc3ccc(O)cc3o2)c1 [Compound 10, moracin M]
IC50 (BChE [4]): 38.1 µM | IC50 (AChE (EC 3.1.1.7)): > 100 µM | IC50 (BChE (EC 3.1.1.8) [2]; read-out: IC50 BChE): > 100 µM | BChE inhibitory effect, in words (BChE (EC 3.1.1.8) [2]): did not inhibit

CC(C)=CCc1cc2cc(-c3cc(O)cc(O)c3)oc2cc1O [Compound 11, moracin N]
IC50 (AChE (EC 3.1.1.7)): 40.5 ± 4.7 µM | BChE Inhibition Type (BChE (EC 3.1.1.8) [1]): Noncompetitive | BChE αKi (BChE (EC 3.1.1.8) [1]): 13.3 µM | Ki (BChE (EC 3.1.1.8) [1]; [6]): 12.7 µM | BChE α (thermodynamic cooperativity factor) (BChE (EC 3.1.1.8) [1]): 1.05 | IC50 (BChE (EC 3.1.1.8) [2]; read-out: IC50 BChE): 13.5 ± 1.6 µM

CC(C)(O)C1Cc2cc3cc(-c4cc(O)cc(O)c4)oc3cc2O1 (centres unmarked) [Compound 12, moracin O]
IC50 (BChE [4]): 28.2 µM | BChE inhibitory effect, in words (BChE (EC 3.1.1.8) [2]): neither moracin O (12) nor P (13) exhibited a significant inhibitory effect

CC1(C)Oc2cc3oc(-c4cc(O)cc(O)c4)cc3cc2C[C@H]1O [Compound 13, moracin P]
IC50 (BChE [4]): 38 µM | BChE inhibitory effect, in words (BChE (EC 3.1.1.8) [2]): neither moracin O (12) nor P (13) exhibited a significant inhibitory effect

CC(C)=CCc1c(O)cc2c(c1-c1cc3ccc(O)cc3o1)C=CC(C)(C)O2 [Compound 14, cathafuran C]
IC50 (AChE (EC 3.1.1.7)): > 100 µM | BChE Inhibition Type (BChE (EC 3.1.1.8) [1]): Competitive | BChE αKi (BChE (EC 3.1.1.8) [1]): 22.7 µM | Ki (BChE (EC 3.1.1.8) [1]; [6]): 1.7 µM | BChE α (thermodynamic cooperativity factor) (BChE (EC 3.1.1.8) [1]): 13.35 | selective index (AChE IC50/BChE IC50 ratio) (BChE (EC 3.1.1.8) [2]): over 38 | IC50 (BChE (EC 3.1.1.8) [2]; read-out: IC50 BChE): 2.6 ± 0.2 µM

CC(C)=CCc1c(O)cc(O)c(CC=C(C)C)c1-c1cc2ccc(O)cc2o1 [Compound 15, mulberrofuran V]
IC50 (AChE (EC 3.1.1.7)): > 100 µM | IC50 (BChE (EC 3.1.1.8) [2]; read-out: IC50 BChE): 27.1 ± 6.8 µM

COc1cc(O)c(CC=C(C)C)c(-c2cc3ccc(O)cc3o2)c1CC=C(C)C [Compound 16, mulberrofuran N]
IC50 (AChE (EC 3.1.1.7)): > 100 µM | IC50 (BChE (EC 3.1.1.8) [2]; read-out: IC50 BChE): 32.8 ± 4.2 µM

CC(C)=CCCC1(C)C=Cc2c(ccc3cc(-c4cc(O)cc(O)c4CC=C(C)C)oc23)O1 (centres unmarked) [mulberrofuran D2]
IC50 (BChE [5]): 1.51 µM

CC(C)=CCC/C(C)=C/Cc1c(O)ccc2cc(-c3cc(O)cc(O)c3CC=C(C)C)oc12 [mulberrofuran D]
IC50 (BChE [5]): 6.12 µM
